Measurements taken from patent US20140039008A1, “METHODS FOR THE ADMINISTRATION OF ILOPERIDONE” (VANDA PHARMACEUTICALS, INC., priority 2004, published 2014).
“And” between values parts separate entries of the source, which are not always exact repeats. Equal entries are not always repeated. Marks after values point to notes of the source that are not given here.

What was measured:
patients [1] = assay: placebo-controlled Phase III studies of iloperidone, QTcF change; format: in vivo, human; details: for mean change in the QTcF: most recent study
Procedure: Iloperidone is a benzisoxazole-piperidinyl derivative, currently in development for the treatment of CNS disorders. […] At lower doses of iloperidone (4 mg-16 mg) QTcF prolongation was minimal (0.1-5 msec). In the most recent study, a greater prolongation was observed when higher doses of iloperidone (20-24 mg/day) were studied. The mean change in the QTcF at doses 20-24 mg/day was 8.5 msec, and 4.6 msec in the 12-16 mg/day dose range in this study.

patients [2] = assay: Example 1: QTc change from baseline after iloperidone by CYP2D6 genotype or metabolite ratio; format: in vivo, human; details: for QTc change at Period 2: after CYP2D6 inhibitor
From the text: The research leading to the present invention was designed to examine the effect of different doses of iloperidone relative to the effect of ziprasidone and quetiapine on QTc duration under carefully controlled conditions. To further evaluate the possible relationship between exposure to iloperidone and the comparators to QTc duration, reassessment after pharmacological inhibition of the principle metabolic pathways for each drug, under steady-state conditions, was also planned.
The addition of metabolic inhibitors in this study therefore allowed for an evaluation of the effect of increasing blood-concentration of iloperidone and/or its metabolites on QT duration. More specifically, this study allowed for an evaluation of the effect of iloperidone on QTc before and after the addition of the CYP2D6 inhibitor, paroxetine, as well as before and after the addition of the CYP3A4 inhibitor, ketoconazole.
The 128 individuals that participated were a good representation of the total sample of 165 individuals that participated in the trial. 22 of 29 total were from the iloperidone 8 mg bid group, 30 of 34 were from the iloperidone 12 mg bid group, 22 of 31 from the 24 mg qd group, 3 of 5 of the risperidone group, 28 of 33 of the ziprazidone group, and 23 of 33 of the quetiapine group.
In order to understand whether the difference in concentration of P88 at Period 1 Tmax was relevant to the increases in QTc after the addition of the inhibitors, the observed mean of P88 for the CYP2D6G1846A AG group was used to divide all individuals into two classes. The first includes individuals with P88 concentrations at Period 3, after the addition of both inhibitors, of equal to or less than 34 ng/mL and the second class includes individuals with P88 concentration greater than 34 ng/mL. The two classes were then compared in regards to the QTc change from baseline at Period 3. Using an ANOVA statistic for the first class […] (n=55) the QTc mean change from baseline in Period 3 was 22.7 msec and that for P88≦34 (n=12) the mean QTc for the same period was 7.7 msec.
While the results for some groups are not statistically significant, they do indicate a trend supporting the hypothesis that QTc prolongation is correlated to P88/P95 ratio. Similar results were obtained when cutoff ratios of 3.0 and 4.0 were analyzed, providing further support to the hypothesis that the extent of QTc prolongation a patient may experience after treatment can be predicted by measuring P88 and P95 blood levels.
Similar results were observed when considering QTc correlation to the (iloperidone+P88)/P95 ratio. […] While the results for some groups are not statistically significant, they do indicate a trend supporting the hypothesis that QTc prolongation is correlated to (iloperidone+P88)/P95 ratio. Indeed, when cutoff ratios of 3 and higher were analyzed, similar results were obtained providing further support to the hypothesis that the extent of QTc prolongation a patient may experience after treatment can be predicted by measuring iloperidone, P88 and P95 blood levels.

patients [3] = assay: Example 2: QTcF change from baseline in iloperidone-treated patients; format: in vivo, human
From the text: From the 300 iloperidone-treated patients initially genotyped for the CYP2D6*4 and * 10 variants (VP-VYV-683-3101), 222 remaining DNA samples were used for this extended pharmacogenomic analysis. One patient was excluded from the analysis due to inconsistent results for the CYP2D6 allele *4 generated by Quest Diagnostics Central Laboratory (Collegeville, Pa.) and Cogenics (Morrisville, N.C.). Pharmacokinetic data of the (iloperidone+P88)/P95 ratio was available for 168 of these patients. QT measurement at Day 14 and 28 was available for 169 and 146 patients respectively.
Analyses were performed on observed case data using an ANCOVA model with the baseline value as a covariate for the change from baseline in QTc (Fridericia formula) and using an ANOVA model for iloperidone blood exposure at Day 14 and Day 28. Linkage disequilibrium analysis was performed using Haploview v4.0 (Barrett et al, 2005).

[4] = in vivo
[5] = in vivo; remark: listed apart in the source

## COc1cc(C(C)=O)ccc1OCCCN1CCC(c2noc3cc(F)ccc23)CC1 [iloperidone, 1-[4-[3-[4-(6-fluoro-1,2-benzisoxazol-3-yl)-1-piperidinyl]propoxy]-3-methoxyphenyl]ethanone]
Patients [1]; 12-16 mg/day dose range
  mean change in the QTcF: 4.6 ms
Patients [1]; 20-24 mg/day
  mean change in the QTcF: 8.5 ms
Patients [1]; lower doses 4 mg-16 mg
  QTcF prolongation: 0.1 to 5 ms
Patients [2]; (ILO + P88)/P95 ratio <3
  LSMean QTc change from Baseline 8 mg bid: 7.2 (n = 23)
  LSMean QTc change from Baseline 12 mg bid: 8.7 (n = 31)
  LSMean QTc change from Baseline 8 + 12 mg bid: 8.3 (n = 54)
  LSMean QTc change from Baseline 24 qd: 14.4 (n = 24)
  LSMean QTc change from Baseline All Treatment Groups: 10.424 (n = 78)
Patients [2]; (ILO + P88)/P95 ratio >3
  LSMean QTc change from Baseline 8 mg bid: 21.3 (n = 5)
  LSMean QTc change from Baseline 12 mg bid: 15.2 (n = 3)
  LSMean QTc change from Baseline 8 + 12 mg bid: 17.3 (n = 8)
  LSMean QTc change from Baseline 24 qd: 30.5 (n = 5)
  LSMean QTc change from Baseline All Treatment Groups: 20.031 (n = 13)
Patients [2]; CYP2D6C100T CC, 8 mg bid
  QTc change at Period 1: 7.8 (17)
  QTc change at Period 2: 11.7 (16)
Patients [2]; CYP2D6C100T CC, 12 mg bid
  QTc change at Period 1: 11.8 (23)
  QTc change at Period 2: 14.5 (21)
Patients [2]; CYP2D6C100T CC, 24 mg qd
  QTc change at Period 1: 9.5 (14)
  QTc change at Period 2: 16.4 (15)
Patients [2]; CYP2D6C100T CT, 8 mg bid
  QTc change at Period 1: 2.9 (2)
  QTc change at Period 2: 12.5 (2)
Patients [2]; CYP2D6C100T CT, 12 mg bid
  QTc change at Period 1: 5.8 (6)
  QTc change at Period 2: 8.7 (6)
Patients [2]; CYP2D6C100T CT, 24 mg qd
  QTc change at Period 1: 19.0 (5)
  QTc change at Period 2: 20.6 (5)
Patients [2]; CYP2D6C100T TT, 8 mg bid
  QTc change at Period 1: −8.4 (1)
  QTc change at Period 2: −0.7 (1)
Patients [2]; CYP2D6C100T TT, 12 mg bid
  QTc change at Period 1: 17.7 (1)
  QTc change at Period 2: 25.0 (1)
Patients [2]; CYP2D6C100T TT, 24 mg qd
  QTc change at Period 1: 38.4 (1)
  QTc change at Period 2: 28.4 (1)
Patients [2]; CYP2D6G1846A AA, 12 mg bid
  QTc change at Period 1: 17.7 (1)^a
  QTc change at Period 2: 25.0 (1)
Patients [2]; CYP2D6G1846A AA, 24 mg qd
  QTc change at Period 1: 38.4 (1)
  QTc change at Period 2: 28.4 (1)
Patients [2]; CYP2D6G1846A AG, 8 mg bid
  QTc change at Period 1: −0.8 (3)
  QTc change at Period 2: 8.1 (3)
Patients [2]; CYP2D6G1846A AG, 12 mg bid
  QTc change at Period 1: 5.8 (6)
  QTc change at Period 2: 8.7 (6)
Patients [2]; CYP2D6G1846A AG, 24 mg qd
  QTc change at Period 1: 19.0 (5)
  QTc change at Period 2: 20.6 (5)
Patients [2]; CYP2D6G1846A GG, 8 mg bid
  QTc change at Period 1: 7.8 (17)
  QTc change at Period 2: 11.7 (18)
Patients [2]; CYP2D6G1846A GG, 12 mg bid
  QTc change at Period 1: 11.8 (23)
  QTc change at Period 2: 14.5 (21)
Patients [2]; CYP2D6G1846A GG, 24 mg qd
  QTc change at Period 1: 14.0 (14)
  QTc change at Period 2: 16.4 (15)
Patients [2]; P88/P95 ratio <2
  LSMean QTc change from Baseline 8 mg bid: 7.2 (n = 23)
  LSMean QTc change from Baseline 12 mg bid: 8.7 (n = 31)
  LSMean QTc change from Baseline 8 + 12 mg bid: 8.3 (n = 54)
  LSMean QTc change from Baseline 24 qd: 13.9 (n = 24)
  LSMean QTc change from Baseline All Treatment Groups: 10.244 (n = 78)
Patients [2]; P88/P95 ratio >2
  LSMean QTc change from Baseline 8 mg bid: 21.3 (n = 5)
  LSMean QTc change from Baseline 12 mg bid: 17.4 (n = 3)
  LSMean QTc change from Baseline 8 + 12 mg bid: 18.3 (n = 8)
  LSMean QTc change from Baseline 24 qd: 29.4 (n = 5)
  LSMean QTc change from Baseline All Treatment Groups: 21.111 (n = 13)
Patients [2]; individuals with P88>34 ng/mL at Period 3, after addition of both inhibitors
  QTc mean change from baseline in Period 3: 22.7 ms
Patients [2]; individuals with P88≦34 ng/mL at Period 3, after addition of both inhibitors
  QTc mean change from baseline in Period 3: 7.7 ms
Patients [3]; Day 14, 1 or 2 non-functional CYP2D6 alleles
  QTcF change, LS Squares Mean QTcF change from baseline: 16.3 msec and 16.3 (N = 59) msec
Patients [3]; Day 14, 2 functional CYP2D6 alleles
  QTcF change, LS Squares Mean QTcF change from baseline: 9.7 msec and 9.7 (N = 110) msec
Patients [3]; Day 14, (iloperidone+P88)/P95 ratio >1
  QTcF change, LS Squares Mean QTcF change from baseline: 16.0 msec and 16.0 (N = 99) msec
Patients [3]; Day 14, (iloperidone+P88)/P95 ratio ≦1
  QTcF change, LS Squares Mean QTcF change from baseline: 7.9 msec and 7.9 (N = 127) msec
Patients [3]; Day 28, 1 or 2 non-functional CYP2D6 alleles
  QTcF change, LS Squares Mean QTcF change from baseline: 11.4 msec and 11.4 (N = 56) msec
Patients [3]; Day 28, 2 functional CYP2D6 alleles
  QTcF change, LS Squares Mean QTcF change from baseline: 4.4 msec and 4.4 (N = 90) msec
Patients [3]; Day 28, (iloperidone+P88)/P95 ratio >1
  QTcF change, LS Squares Mean QTcF change from baseline: 10.1 msec and 10.1 (N = 79) msec
Patients [3]; Day 28, (iloperidone+P88)/P95 ratio ≦1
  QTcF change, LS Squares Mean QTcF change from baseline: 4.8 msec and 4.8 (N = 119) msec
[4]
  increase of the area under the curve (AUC): 131%
[5]
  increase in the concentrations: 38-58%
